Results from US9833490B1, “Drug combination for the treatment of infertility and its preparation methods and applications” (SICHUAN SHANZE BIOTECH.,LTD., priority 2017, dated 2017).

Biological target: xanthine oxidase (Homo sapiens, UniProt P47989)
Experiment: Xanthine oxidase inhibitory activity
Assay type: biochemical
Conditions: relative to allopurinol

Chain of xanthine oxidase (P47989 whole entry, species assumed): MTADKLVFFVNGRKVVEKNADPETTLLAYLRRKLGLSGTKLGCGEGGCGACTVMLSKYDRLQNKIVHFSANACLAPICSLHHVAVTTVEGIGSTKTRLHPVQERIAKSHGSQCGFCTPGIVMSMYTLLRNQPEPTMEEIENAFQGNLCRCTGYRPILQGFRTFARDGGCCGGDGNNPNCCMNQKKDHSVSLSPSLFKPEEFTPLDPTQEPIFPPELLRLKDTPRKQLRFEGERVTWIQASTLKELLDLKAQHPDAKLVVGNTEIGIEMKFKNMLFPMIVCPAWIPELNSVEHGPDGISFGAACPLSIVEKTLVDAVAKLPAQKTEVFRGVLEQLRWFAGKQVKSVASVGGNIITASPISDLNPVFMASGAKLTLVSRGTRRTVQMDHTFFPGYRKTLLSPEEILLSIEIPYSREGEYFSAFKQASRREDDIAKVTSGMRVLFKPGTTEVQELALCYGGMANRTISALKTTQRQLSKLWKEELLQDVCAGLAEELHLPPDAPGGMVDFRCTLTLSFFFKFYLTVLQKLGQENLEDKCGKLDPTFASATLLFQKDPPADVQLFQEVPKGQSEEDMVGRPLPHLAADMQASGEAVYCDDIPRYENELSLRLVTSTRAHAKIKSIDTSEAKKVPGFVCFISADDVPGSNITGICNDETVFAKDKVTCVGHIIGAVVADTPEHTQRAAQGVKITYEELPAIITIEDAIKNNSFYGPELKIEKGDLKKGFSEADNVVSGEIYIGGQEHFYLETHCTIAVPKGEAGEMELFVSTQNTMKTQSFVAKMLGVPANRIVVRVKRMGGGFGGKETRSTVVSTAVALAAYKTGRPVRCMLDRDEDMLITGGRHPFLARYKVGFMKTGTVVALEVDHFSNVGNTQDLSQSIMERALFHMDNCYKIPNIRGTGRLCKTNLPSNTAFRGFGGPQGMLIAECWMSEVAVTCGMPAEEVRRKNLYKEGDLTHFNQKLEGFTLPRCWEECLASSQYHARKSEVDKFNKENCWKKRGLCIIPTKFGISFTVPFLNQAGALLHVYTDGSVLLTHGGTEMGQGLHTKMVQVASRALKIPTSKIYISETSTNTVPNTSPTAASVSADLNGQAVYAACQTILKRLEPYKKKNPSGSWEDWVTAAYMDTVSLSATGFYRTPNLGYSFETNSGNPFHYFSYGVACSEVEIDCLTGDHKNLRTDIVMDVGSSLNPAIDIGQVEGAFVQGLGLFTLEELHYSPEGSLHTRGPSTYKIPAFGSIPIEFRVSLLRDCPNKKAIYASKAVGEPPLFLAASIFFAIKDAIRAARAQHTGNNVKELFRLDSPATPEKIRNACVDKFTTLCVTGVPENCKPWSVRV

SMILES | xanthine oxidase inhibitory activity, fold higher than allopurinol
O=c1c(O)c(-c2ccc(O)c(O)c2)oc2c(O)c(O)ccc12 [melanoxetin, 3,7,8,3′,4′-pentahydroxyflavone] | 17 fold
O=C(/C=C/c1ccc(O)c(O)c1)c1ccc(O)c(O)c1O [okanin, 3,4,2′,3′,4′-pentahydroxy trans-chalcone] | 63 fold
